The results in this text go back to patent US7781423B2, “Compounds to promote regeneration of bone marrow” (priority 2007, dated 2010).

In experiment [1] the test system is granulocyte-macrophage colony-forming units (CFU-GM). Nature of the experiment: Recovery of bone marrow function after sublethal whole body irradiation (nucleated BM cells, CFU-GM assay). It counts as in vivo, C57B1 mice. As to conditions: for CFU-GM per femur / CFU-GM/10^5 nucleated BM cells: CCompound1 4.5 mg per kg i.p. daily, day -3 to day +3; for CFU-GM/10^5 nucleated BM cells: colonies counted on day 7 of culture. As for the experimental part:
This experiment served to determine if CCompound1 was able to promote regeneration of partially ablated bone marrow from endogenous stem cells i.e. promote restoration of the capacity of bone marrow to produce blood cells. The CFU-GM assay was performed because the number of CFU-GM per femur is a good indicator of bone marrow regeneration. Ballestrero, A., Ferrando, F., Garuti, A., Basta, P., Gonella, R., Stura, P., Mela, G. S., Sessarego, M, Gobbi, M. and Patrone, F., “Comparative effects of three cytokine regimens after high-dose cyclophosphamide: Granulocyte colony-stimulating factor, granulocyte-macrophage colony-stimulating factor (GM-CSF), and sequential interleukin-3 and GM-CSF,” J. Clin. Oncol., 17, 1296-1303 (1999).
C57B1 female (10-14 weeks old) mice received sublethal (250 cGy) whole body irradiation from a ^137Cesium source (day 0). Starting three days before irradiation, animals received daily 4.5 mg per kg of CCompound1 via intraperitoneal injection; this treatment also was provided on day 0 and once daily for three days subsequent to irradiation. In another group, mice were injected only with physiological saline. The subsequent procedure has been reported in Vas, V., Fajka-Boja, R., Ion, G. A., Dudics, V., Monostori, E. and Uher, F., “Biphasic effect of recombinant Galectin-1 on the growth and death of early hematopoietic cells,” Stem Cells, 23, 279-287 (2005). Briefly, bone marrow was flushed from the femurs with Iscove's modified Dulbecco's medium (Gibco BRL, Gaithersburg, Md., USA), and after standard erythrocyte lysis, nucleated cells were counted using a hemocytometer. […] To measure the formation of the granulocyte-macrophage colony-forming units (CFU-GM), a semisolid colony-forming cell assay was used. Nucleated bone marrow cells (isolated on the days as indicated above) were plated in 35-mm Petri dishes (Costar, Cambridge, Mass., USA) in Iscove's modified Dulbecco's medium supplemented with 1% methylcellulose, 30% horse serum (Gibco), 10% WEHI-3B conditioned medium as a source of growth factors, 4 mM L-glutamine, 0.25 mM a-thioglycerol (Gibco), 1% deionized bovine serum albumine (Sigma), and antibiotics (Gibco). Cells were cultured at 37° C. in 5% CO2/95% air atmosphere and colonies were counted on day 7 in the same dish. Colonies containing at least 50 cells were counted which is a generally accepted value in the literature. Each value represents the mean±st. dev. of 9 samples (3 parallel dishes from each animal).

Experiment [2] concerns lethally irradiated mice that received bone marrow transplantation. The experiment can be described thus: Blood profile after bone marrow transplantation following lethal irradiation. It counts as in vivo, C57B1 mice. As to conditions: for Platelets / RBC / WBC: CCompound1 4.5 mg per kg i.p. daily, day -3 to day +3. The protocol: Twelve week old female C57B1 mice were used for the experiments. Each drug was administered intraperitoneally once a day for 5 consecutive days. In the second, third, fourth and fifth groups, mice were administered 120 mg/kg of cyclophosphamide (CP). In a third group, mice were also administered 4.5 mg/kg of CCompound1. In a fourth group, mice were also administered 4.5 mg/kg of CCompound3. In a fifth group, mice were also administered 2.0 mg/kg of CCompound26. In the first group, mice received no treatment. Each group included 5 animals. After 3 hours of the last treatments (on day 5), blood samples were collected from the ocular venous plexus of ether-anesthetized mice by retro-orbital venipuncture in heparanized tubes. Complete cell counts (RBC, red blood cell; WBC, white blood cell; PTL, platelet) were determined with a Sysmex F-800 hematology analyzer (To a Medical Electronics Co. LTD, Kobe, Japan). All data shown in Table 2 are the average of 5 independent determinations.
In this experiment the goal was to determine if CCompound1 can enhance expansion of transplanted bone marrow cells infused after applying a lethal dose of whole body irradiation (which reduces the number of bone marrow cells by more than 90%). C57B1 female mice (10-14 weeks old) were subjected to 900 cGy whole body irradiation from a ^137Cesium source which was followed within 6 hours by infusion of one million donor nucleated bone marrow cells by tail vein injection. Starting 3 days before irradiation, animals received daily 4.5 mg per kg of CCompound1 via intraperitoneal injection; this treatment also was provided on day 0 and once daily for the subsequent 3 days after irradiation. In another group, mice were injected only with physiological saline.
Bone marrow cells were collected on day 0 from non-irradiated animals as well as on days 6, 14, 28 and 42 after irradiation and bone marrow transplantation. Nucleated bone marrow cells were quantified and CFU-GM assay was performed as described in Example 3 while blood profiling was performed as described in Example 1. For each group, on the indicated days bone marrow and blood samples were collected from 3 animals. Each value presented in Table 5 and Table 6 represents the mean±st. dev. of 3 samples (derived from 3 animals).

The mark [3] stands for this setting: day 3 after 250 cGy irradiation.
[4] abbreviates: day 6 after 250 cGy irradiation.
[5] abbreviates: day 10 after 250 cGy irradiation.
Where [6] appears, read: after bone marrow transplantation.
The mark [7] stands for this setting: day 6 after 900 cGy irradiation and bone marrow transplantation.
Where [8] appears, read: day 14 after 900 cGy irradiation and bone marrow transplantation.
The mark [9] stands for this setting: day 28 after 900 cGy irradiation and bone marrow transplantation.
Setting [10] is: day 42 after 900 cGy irradiation and bone marrow transplantation.

Take `Cc1c(OCC(O)C[N+](C)(C)C)cc2c(=O)c3ccccc3sc2c1C.[Cl-]` (stereo not shown) [CCcompound1, [3-(3,4-Dimethyl-9-oxo-9H-thioxanthen-2-yloxy)-2-hydroxypropyl]trimethyl-ammonium chloride]: the CFU-GM per femur in experiment [1] (setting [3]) is reported as 508; in experiment [1] (setting [4]) it was 713; in experiment [1] (setting [5]), 1,081. Further, the “CFU-GM/10^5 nucleated BM cells” value in experiment [1] (setting [3]) is listed as 87.8 ± 9.0; in experiment [1] (setting [4]), 92.3 ± 7.2; in experiment [1] (setting [5]) it was 94.4 ± 8.1. In addition, in experiment [1] (from the third day on after sublethal irradiation), the “effect on number of nucleated bone marrow cells and CFU-GM” value was “enhanced the number of nucleated bone marrow cells and CFU-GM”. Besides, the “time to recover platelet count similar to about 100,000 per 1 μl from transplanted bone marrow stem cells” value in experiment [2] (setting [6]) was “less than 6 days”. Besides, the “time to recover white blood cell count similar to 2,500 per 1 μl from transplanted bone marrow stem cells” value in experiment [2] (setting [6]) lay in the range of 9 to 11 days. In addition, the “time to about 50% recovery of white blood cells” value in experiment [2] (after lethal irradiation and bone marrow transplantation) is listed as “about 14 days”. Further, the Platelets in experiment [2] (setting [7]) is on record as 243 ± 19 ×10^3/mm^3; in experiment [2] (setting [8]) it was 438 ± 112 ×10^3/mm^3; in experiment [2] (setting [9]), 716 ± 138 ×10^3/mm^3; in experiment [2] (setting [10]), 776 ± 112 ×10^3/mm^3. The RBC is on record as 4.8 ± 1.2 ×10^6/mm^3 in experiment [2] (setting [7]), 9.1 ± 1.1 ×10^6/mm^3 in experiment [2] (setting [8]), 10.9 ± 1.3 ×10^6/mm^3 in experiment [2] (setting [9]) and 11.0 ± 0.7 ×10^6/mm^3 in experiment [2] (setting [10]). Besides, the WBC is reported as 1.6 ± 0.3 ×10^3/mm^3 in experiment [2] (setting [7]), 3.3 ± 0.4 ×10^3/mm^3 in experiment [2] (setting [8]), 5.2 ± 0.8 ×10^3/mm^3 in experiment [2] (setting [9]) and 6.6 ± 0.4 ×10^3/mm^3 in experiment [2] (setting [10]).
